Laboratory results from patent US20260174674A1, “INCOMPLETE AUTOPHAGY INDUCTION FOR THE TREATMENT OF CANCER” (Northwestern University, priority 2022, published 2026).

How the values were obtained:
α-synuclein = conditions: cited from earlier work
brain metastases = conditions: added to whole-brain radiation, cited from earlier work
[1] = cited from earlier work
[2] = test system: BT-474Br, a HER2-positive BCBM cell line; assay: CNS drug screen, CellTiter-Glo cell viability; type: cell-based; conditions: 25 μM, 72 hours, Cell Titer Glo
Description: (§1) The Prestwick CNS Drug Library of 320 CNS compounds was purchased from Prestwick Chemical Libraries for screening. Cells were seeded at a density of 5000 cells/well in clear, flatbottomed, black-walled, 96-well plates. Each compound from the library was added at a final concentration of 25 μM per well 1 day after seeding of cells. After three days of treatment, cell viability was measured using CellTiter-Glo® Luminescent Cell Viability Assay (Promega) according to the manufacturer's instructions.
A blinded screen was conducted on a drug library comprising 320 structurally diverse drugs that are FDA approved, blood brain barrier (BBB) permeable, and known for their pharmacological effects on the CNS to identify potential hits for therapeutic intervention against brain metastases. Using BT-474Br, a HER2-positive BCBM cell line, the efficacy of the 320 compounds were screened at a standard concentration of 25 μM. After 72 hours of treatment, a cell viability assay was performed using Cell Titer Glo to determine the number of viable, metabolically active cells in culture. The screen yielded five different therapeutic agents that caused a vast reduction (>95%) in cell viability in vitro.

HCC1954 = assay: CNS drug screen, cell viability, trastuzumab-resistant line; type: cell-based; conditions: 25 μM
Description: as §1
HER2-positive breast cancer has the greatest risk for intracranial-specific metastases. When metastatic cancer cells colonize the brain, they develop resistance to systemic therapies, such as trastuzumab. For this reason, another blinded screen was conducted on a metastatic breast cancer cell line that is trastuzumab-resistant, HCC1954. At 25 μM, the screen yielded five hits that caused a nearly complete loss of cell viability. […] Next, the effect of metixene on different metastatic breast cancer cell lines was determined by measuring its IC50 in two HER2-positive cell lines (BT474 and HCC1954) and five triple-negative breast cancer cell lines (MDAMB-231-Br, HCC1806, HS578T, HCC3153, and SUM159) after 72 hours of treatment.

BT-474Br = assay: Cell viability assay; type: cell-based
Description: (§2) Following the determination of an appropriate range for treatment of BCBM cells, the anti-cancer activity of metixene was evaluated in the brain metastatic HER2-positive BT-474Br and the triple-negative MDA-MB-231Br cell lines, using increasing concentrations of the drug at different time points.

MDA-MB-231Br = assay: Cell viability assay; type: cell-based
Description: as §2

[3] = test system: caspase 3/7 activity in BT-474Br; assay: Caspase 3/7 assay; type: cell-based
[4] = test system: caspase 3/7 activity in MDA-MB-231Br; assay: Caspase 3/7 assay; type: cell-based
[5] = test system: cleaved caspase-3 in BT-474Br; assay: Cleaved caspase-3 protein expression; type: cell-based; conditions: 24 hours
Description: (§3) Next, whether metixene induces apoptotic cell death was investigated. […] Immunofluorescence analysis of metixene-treated BT-474Br and MDA-MB-231Br cells confirmed increased cleaved caspase-3 expression.

[6] = test system: cleaved caspase-3 in MDA-MB-231Br; assay: Cleaved caspase-3 protein expression; type: cell-based; conditions: 24 hours
Description: as §3

[7] = test system: HCC1954 mammary fat pad tumors; assay: Mammary fat pad tumor model; type: in vivo, nude mice
Description: (§4) All animal studies were completed per the National Institutes of Health guidelines on the care and use of laboratory animals for research purposes. The Institutional Committee on Animal Use at Northwestern University approved the protocols. Six- to eight-week-old athymic, immunodeficient (nu/nu) female mice were obtained from Charles River and maintained in a specific pathogen-free facility. For mammary gland injections, 1×10^6 HCC1954 cells were injected in the inguinal mammary fat pad of nude female mice. For the stereotactic intracranial injection, mice were placed in a stereotactic frame, and 5×10^5 BT-474Br cells were intracranially injected at a depth of 3 mm. For intracarotid artery injections, 1×10^6 MDA-MB-231Br cells were injected using a 31-gauge BD insulin syringe into the lumen of internal carotid artery.
The efficacy of metixene hydrochloride was evaluated using an in vivo model. HCC1954 cells were injected into the mammary fat pads of nude mice. After the formation and establishment of 5 mm breast tumors, mice were randomly divided into three groups whereby treatment was administered intraperitoneally: control (25% captisol); metixene (0.1 mg/kg); and metixene (1.0 mg/kg). The dosages were given three times a week. After 6 weeks, fat pad tumors were collected and analyzed (FIG. 2A).

[8] = test system: BT-474Br intracranial tumors; assay: Stereotactic intracranial model of BCBM; type: in vivo, nude mice
Description: as §4
After showing its anti-tumor effect in vivo, whether metixene could improve survival in different preclinical models of brain metastases was tested. A stereotactic intracranial injection of HER2-positive BT474-Br cells was performed in nude mice. After 10 days of recovery and tumor growth, the mice were divided into two groups that were treated intraperitoneally: control (25% captisol, n=7); and metixene (1.0 mg/kg, n=8). The dosages were given three times per week.

[9] = test system: MDA-MB-231-Br brain metastases; assay: Intracarotid model of multiple brain metastases; type: in vivo, nude mice; conditions: 1.0 mg/kg intraperitoneally three times per week, p=0.037
Description: as §4
The model was established through a systemic intracarotid injection of triple-negative MDA-MB-231-Br cells in nude mice. Ten days after injection of tumor cells, mice were randomly divided into two groups and treated intraperitoneally with: control (25% captisol, n=5) and metixene (1.0 mg/kg, n=6). The treatments were given three times per week.

[10] = test system: LC3 in MDA-MB-231-Br cells; assay: LC3 conversion and autophagy flux; type: cell-based; conditions: 10 μM, time course
Description: Next, MDA-MB-231-Br cells were treated with metixene for different durations to determine the mechanism of autophagic signaling in brain metastatic cells. […] Afterward, autophagy flux changes after ten minutes, one hour, and three hours of treatment were tested. LC3 II levels in control (untreated) cells, cells treated with chloroquine (25 μM), cells treated with metixene (10 μM), and cells treated with metixene and chloroquine were compared.

[11] = test system: BT-474 and BT-474Br and MDA-MB-231 and MDA-MB-231Br; assay: Autophagy induction with increasing concentration (LC3, SQSTM1/p62); type: cell-based
Description: (§5) The efficacy of metixene in inducing autophagy was tested in two primary breast and brain metastatic cancer cell lines, using BT-474 and BT-474Br and MDA-MB-231 and MDA-MB-231Br, respectively.

LC3 in BT-474Br cells = assay: LC3 puncta immunofluorescence; type: cell-based; conditions: 10 μM; P=0.015
Description: as §5

NDRG1 in MDA-MB-231Br = assay: NDRG1 and pNDRG1 expression; type: cell-based; conditions: dose-dependent treatment
Description: (§6) Upon further analysis of the RPPA data, the phosphorylation of N-Myc Downstream Regulated 1 (NDRG1) was noted to be relevant in four major pathways related to autophagy after 24 hours of metixene treatment. […] To confirm the role of NDRG1 in autophagy, NDRG1 knockout (KO) cells were generated using CRISPR Cas9 in MDA-MB-231Br cells. The cells were then treated with metixene in a dose-dependent manner and compared to cells transfected with a vector control.

[12] = test system: NDRG1 KO MDA-MB-231Br cells; assay: NDRG1 CRISPR Cas9 knockout versus vector control; type: cell-based
Description: as §6
(§7) The inventors then checked whether NDRG1 is further involved in the apoptotic cell death induced by metixene. A cell viability assay was conducted to check the effect of NDRG1 KO versus vector control upon metixene dose-dependent treatment. […] Upon NDRG1 KO, autophagy is completed, and the caspase-mediated pathway of apoptosis is not activated. This mechanism applies to primary brain cancers, such as glioblastoma (FIG. 4A), and other metastatic cancers to the brain, such as lung cancer (FIG. 4B) and melanoma (FIG. 4C).

CT2A glioma cells = assay: Cell killing in glioma cells; type: cell-based; conditions: increasing amount of metixene
Description: (§8) FIGS. 4A-4C. Metixene induces cell death in primary brain tumors and other metastatic cancers. (FIG. 4A) CT2A glioma cells were treated with increasing amount of metixene. […] (FIG. 4B) H2030Br lung cancer brain metastatic cells were treated with increasing amount of metixene. […] (FIG. 4C) WM3734 melanoma brain metastatic cells were treated with increasing amount of metixene.
as §7

[13] = test system: H2030Br lung cancer brain metastatic cells; assay: Cell killing in lung cancer brain metastatic cells; type: cell-based; conditions: increasing amount of metixene
Description: as §8, §7

[14] = test system: WM3734 melanoma brain metastatic cells; assay: Cell killing in melanoma brain metastatic cells; type: cell-based; conditions: increasing amount of metixene
Description: as §8, §7

[15] = dose-dependent treatment, Western blot

C=CCNC1=C2C[C@@H](C)C[C@H](OC)[C@H](O)[C@@H](C)/C=C(\C)[C@H](OC(N)=O)[C@@H](OC)/C=C\C=C(/C)C(=O)NC(=CC1=O)C2=O [17-AAG]
reduction of α-synuclein in cells (α-synuclein): effective in reducing α-synuclein in cells

CCN(CC)CCCC(C)Nc1ccnc2cc(Cl)ccc12 (stereo not drawn) [chloroquine]
toxicity (brain metastases; vs controls): no increase in toxicity
overall survival (brain metastases; controls 7.42 months, P=0.839): 10.2 months
BBB permeability [1]: low permeability of the BBB

CN1CCCC(CC2c3ccccc3Sc3ccccc32)C1 (stereo not drawn) [metixene]
reduction in cell viability [2]: top hit in both screens
loss of cell viability (HCC1954): top hit in both screens
cell viability (BT-474Br; 24 hours): significant reduction in cell viability
cell viability (BT-474Br; 48 hours, 15 μM): significantly decreased
cell viability (MDA-MB-231Br; 24 hours): significant reduction in cell viability
cell viability (MDA-MB-231Br; 48 hours, 5, 10, and 15 μM): significantly decreased
caspase 3/7 activity ([3]; 24 hours): significant increase in caspase 3/7 activity
caspase 3/7 activity ([3]; 48 hours, 15 μM): increased significantly
caspase 3/7 activity ([4]; 24 hours, 10 μM and 15 μM): significant increase in caspase 3/7 activity
caspase 3/7 activity ([4]; 48 hours, 15 μM): increased significantly
cleaved caspase-3 protein levels [5]: markedly increase
cleaved caspase-3 protein levels [6]: markedly increase
tumor weight ([7]; 0.1 mg/kg intraperitoneally three times a week, 6 weeks, P=0.0043): decreased significantly
percent of cleaved caspase-3-positive cells in tumor sections ([7]; 0.1 mg/kg, p=0.001): significant increase
tumor weight ([7]; 1.0 mg/kg intraperitoneally three times a week, 6 weeks, P=0.0004): decreased significantly
percent of cleaved caspase-3-positive cells in tumor sections ([7]; 1.0 mg/kg, p=0.0002): significant increase
tumor volume ([7]; 0.1 and 1.0 mg/kg intraperitoneally three times a week, 6 weeks, p<0.0001): decreased significantly
median survival ([8]; 1.0 mg/kg intraperitoneally three times per week, control 52 days, p=0.0008): 64 days
luciferase signal in the brain ([8]; 1.0 mg/kg, after six weeks of treatment, vs controls, p=0.02): significant reduction
median survival ([9]; control 44 days): 67 days
increase in survival in comparison to controls [9]: 52%
conversion of LC3 I to LC3 II [10]: increase as early as ten minutes
LC3 II levels ([11]; increasing concentration): increased as the concentration of metixene increased
ratio of LC3 II to I levels ([11]; increasing concentration): trended upwards with increasing concentration
SQSTM1/p62 levels ([11]; increasing concentration (FIG. 3F)): increased with increasing concentration
LC3 puncta accumulation (LC3 in BT-474Br cells): significant increase in the accumulation of puncta
expression of NDRG1 and pNDRG1 (NDRG1 in MDA-MB-231Br): increased significantly in a dose-dependent manner
apoptosis (caspase 3/7) in NDRG1 KO cells vs control ([12]; 10 μM (P=0.0078) and 15 μM (P<0.0001)): significantly reduced
viability of NDRG1 KO cells vs control cells ([12]; 10 μM (P=0.0271) and 20 μM (P<0.0001)): significantly more viable
LC3II levels in NDRG1 KO cells vs vector control [12, 15]: decreased significantly
p62 levels in NDRG1 KO cells vs vector control [12, 15]: significant decrease
concentration at which potent cell-killing effect begins (CT2A glioma cells): 5 µM
concentration at which potent cell-killing effect begins [13]: 10 µM
concentration at which potent cell-killing effect begins [14]: 10 µM
BBB permeability [1]: BBB permeable
